Results reported in publication PMC6520522, “In vitro and in vivo Metabolism of a Potent Inhibitor of Soluble Epoxide Hydrolase, 1-(1-Propionylpiperidin-4-yl)-3-(4-(trifluoromethoxy)phenyl)urea” (Frontiers in Pharmacology, 2019).
Values joined by “and” are separate entries in the source; they are usually repeats but may differ in a detail not shown here. Identical values can stand only once.

Columns and labels:
[1] = Metabolite identification/screening by LC-MS/MS (precursor ion scans, LC-MRM-MS) in rats; format: in vivo, rat; details: for detection as TPPU metabolite: LC-MS/MS, in vivo in rats (blood, urine), Table 1 footnote: in vitro and in vivo; for share of TPPU metabolism, if formed: not detected by the LC-MRM-MS method; for concentration in rat urine, if formed (below method detection limit): rat urine after oral TPPU, LC-MRM-MS, no peak found, LOD
Experimental: Healthy male rats (Sprague Dawley, n = 4) were housed in temperature-controlled housing with ad libitum standard chow and drinking water. […]. Both blood and urine samples were collected. Blood samples (10 μL) at time points of 0 (before dosing), 0.25, 0.5, 1, 2, 4, 8, 12, 24, 48, and 72 h post dose were collected from the tail vein. Collected blood samples were transferred to Eppendorf tubes containing 90 μL of EDTA solution (0.1% EDTA and 0.1% acetic acid) and were immediately shaken to avoid blood coagulation. The urine and feces samples were passively collected at the time points of 8, 12, 24, 48, and 72 h post dose. TAPU (10 μL) of 1 μM in methanol was added in each blood and urine sample as an internal standard solution. The blood sample extraction was performed with 200 μL ethyl acetate by liquid-liquid extraction. The representative urine samples were subjected to protein precipitation prior to analysis of TPPU and Phase I metabolites. Briefly, urine (10 μL) was treated with 50 μL acetonitrile. After vortex mixing and centrifugation, the supernatant was collected. The feces samples (50–100 mg) were extracted using 600 μL extraction solution (MeOH: EA = 1:1). The mixtures were kept at −20°C overnight to give efficient extraction of TPPU and its metabolites. On day 2, after vortex mixing and centrifugation, the supernatant was collected. The remaining residue was extracted an additional time with 300 μL extraction solution, and the supernatant was combined after centrifugation. The collected supernatants were dried using a speed vacuum concentrator and reconstituted in 50 μL of 100 nM CUDA solution in methanol. In addition, urine (10 μL) was diluted with water (50 μL) and then subjected to analysis of glucuronide or sulfate conjugates.
(§1) LC-MS/MS analysis was conducted on an Agilent SL 1200 series LC system (Agilent, Palo Alto, CA) connected to a 4,000 Qtrap mass spectrometer (Applied Biosystems Instrument Corporation, Foster City, CA) with Turbo V ion source. Liquid chromatography was performed on a Kinetex® C18 column (100 × 2.1 mm, 1.7 μm). Three μL solution was injected onto the column held at 45°C for analysis. Mobile phase A and B were water with 0.1% acetic acid and acetonitrile with 0.1% acetic acid, respectively. The LC flow rate was 300 μL/min.
(§2) The mass spectrometer was operated in both negative and positive modes. Three different scan types were employed to perform mass spectrometry analysis, including product ion scan, precursor ion scan (optimized parameters in Table S4) and MRM scan (optimized parameters in Table S5).
. The other minor fragment ion at m/z 85 appeared at higher-energy collision induced dissociation (CID, 38 eV) and is derived from the C-O bond cleavage on the trifluoromethoxyphenyl group (Figure 1B). To support the structural identification of TPPU metabolites, six putative metabolites, M1–M4, α-keto amide metabolite and 4-(trifluoromethoxy)aniline were synthesized and analyzed by LC-MS/MS (Figure 2 and Table 2). In the negative ion mode, the fragment ion at m/z 176 was generated by all five synthetic putative metabolites (M1–M4 and α-keto amide metabolite). Apparently, this fragment ion (m/z 176) is a characteristic fragment that is generated by metabolites containing the 4-(trifluoromethoxy)aniline moiety. Therefore, precursor ion scan for m/z 176 can be used to screen for this kind of TPPU metabolite. The method limit of detection (LOD) is 2 ng/mL. In addition, the fragment ion at m/z 85 (from the trifluoro-methoxy) was also generated by these synthetic standards. […]. Therefore, precursor ion scan for m/z 85 can unveil a large number of possible TPPU metabolites, such as the ones-formed from amide hydrolysis and oxidation at aliphatic groups, aromatic ring, and nitrogen center. […]. […]

[2] = In vitro metabolism of TPPU in liver S9 fractions; format: in vitro ADME, human, monkey, dog, rat, mouse; details: for formation of metabolite in liver S9 fractions: with NADPH regeneration system, rat, mouse, dog, monkey, human, 2 h; for formation of metabolite in liver S9 fractions in the absence of a NADPH generation system: without NADPH, liver S9 fractions (Figure S1: human)
Experimental: The in vitro study of TPPU metabolism was conducted following previous methods as described (Watanabe and Hammock, [2001]). Briefly, 1 μL of TPPU (1 mM in DMSO; [TPPU]final = 10 μM) was mixed with 94 μL of diluted liver S9 fractions (final, 0.05 mg protein/mL) from human, monkey, dog, rat, and mouse and incubations were conducted in a 10 mL glass vial. After 5 min preincubation at 37°C, the reaction was initiated by adding 5 μL of NADPH regeneration solution. The NADPH regeneration solution was prepared by mixing 50 μL of NADP^+ (100 mM), 50 μL of G6P (500 mM), 50 μL of G6PDH (100 Unit/mL), and 100 μL of sodium phosphate buffer. Incubation without NADPH regeneration solution was used as control. Reactions were kept for 2 h and terminated by addition of 100 μL of ice-cold methanol containing CUDA (200 nM) as an internal standard. The mixture was followed by vigorous mixing for 2 min and centrifuging at 10,000^*g for 10 min. Each supernatant was transferred to an HPLC vial and kept under 4°C until LC-MS analysis.
as §1

recombinant human sEH = molecular target: T1, recombinant human sEH (Homo sapiens, UniProt P34913); experiment: sEH inhibition potency, CMNPC fluorescent assay; format: biochemical; details: for IC50: CMNPC fluorescent assay, recombinant human sEH 1 nM, 30°C, average of three replicates, read-out: HsEH IC50
T1 sequence (P34913 1-555): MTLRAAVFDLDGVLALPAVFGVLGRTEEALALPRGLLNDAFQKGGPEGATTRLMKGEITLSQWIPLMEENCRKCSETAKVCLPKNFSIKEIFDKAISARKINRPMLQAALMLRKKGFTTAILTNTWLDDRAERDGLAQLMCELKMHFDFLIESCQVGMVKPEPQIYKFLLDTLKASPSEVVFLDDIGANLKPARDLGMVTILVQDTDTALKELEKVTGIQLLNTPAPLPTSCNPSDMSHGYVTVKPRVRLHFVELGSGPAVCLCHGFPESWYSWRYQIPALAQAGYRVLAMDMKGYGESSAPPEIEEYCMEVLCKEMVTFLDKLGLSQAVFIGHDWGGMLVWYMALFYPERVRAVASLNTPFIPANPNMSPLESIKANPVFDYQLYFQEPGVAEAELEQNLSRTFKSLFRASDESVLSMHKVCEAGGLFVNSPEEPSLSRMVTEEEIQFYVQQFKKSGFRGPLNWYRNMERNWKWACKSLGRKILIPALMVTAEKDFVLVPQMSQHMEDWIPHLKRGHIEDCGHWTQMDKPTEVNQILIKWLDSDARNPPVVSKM
Experimental: Briefly, recombinant human sEH [1 nM in sodium phosphate buffer (0.1 M, pH = 7.4, 0.1 mg/mL BSA)] was incubated with each analyte (0.1 < [I]final < 10,000 nM) at 30°C for 5 min. Then, the reaction was started with the addition to CMNPC ([S]final = 5 μM). The reaction was monitored kinetically for 10 min at 30°C. The formation of the fluorescent product 6-methoxynaphthaldehyde (λexcitation = 330 nm, λemission = 465 nm, 30°C) was measured every 30 s. IC50 values were determined by regression of the remaining activity in function of the inhibitor concentrations. Assays were run in triplicate and IC50 values are the averages of three replicates.

[3] = Urine levels of TPPU and metabolites after single oral dose in rats; format: in vivo; details: male, Sprague Dawley, rat, single oral dose 10 mg/kg TPPU, n = 3; for concentration at 8 h: 8h post dose; for concentration at 12 h: 12h post dose; for concentration at 24 h: 24h post dose; for concentration at 48 h: 48h post dose; for concentration at 72 h: 72h post dose
[4] = Blood pharmacokinetics of TPPU and its metabolites after single oral dose in rats; format: in vivo; details: for half-life: rat, po, 10 mg/kg, n = 4, read-out: T1/2 (half-life) (converted); for share of the total TPPU-related exposure in blood: single oral dose of TPPU, over 72 h
Experimental: Healthy male rats (Sprague Dawley, n = 4) were housed in temperature-controlled housing with ad libitum standard chow and drinking water. Each rat received TPPU (dissolved in 0.5 mL PEG400) at a dose of 10 mg/kg by oral gavage in order to generate significant amounts of metabolites while corresponding to previous efficacious concentration doses. Both blood and urine samples were collected. Blood samples (10 μL) at time points of 0 (before dosing), 0.25, 0.5, 1, 2, 4, 8, 12, 24, 48, and 72 h post dose were collected from the tail vein. Collected blood samples were transferred to Eppendorf tubes containing 90 μL of EDTA solution (0.1% EDTA and 0.1% acetic acid) and were immediately shaken to avoid blood coagulation. The urine and feces samples were passively collected at the time points of 8, 12, 24, 48, and 72 h post dose. TAPU (10 μL) of 1 μM in methanol was added in each blood and urine sample as an internal standard solution. The blood sample extraction was performed with 200 μL ethyl acetate by liquid-liquid extraction. The representative urine samples were subjected to protein precipitation prior to analysis of TPPU and Phase I metabolites. Briefly, urine (10 μL) was treated with 50 μL acetonitrile. After vortex mixing and centrifugation, the supernatant was collected. The feces samples (50–100 mg) were extracted using 600 μL extraction solution (MeOH: EA = 1:1). The mixtures were kept at −20°C overnight to give efficient extraction of TPPU and its metabolites. On day 2, after vortex mixing and centrifugation, the supernatant was collected. The remaining residue was extracted an additional time with 300 μL extraction solution, and the supernatant was combined after centrifugation. The collected supernatants were dried using a speed vacuum concentrator and reconstituted in 50 μL of 100 nM CUDA solution in methanol. In addition, urine (10 μL) was diluted with water (50 μL) and then subjected to analysis of glucuronide or sulfate conjugates.
as §1, §2

[5] = Feces levels of TPPU and metabolites after single oral dose in rats; format: in vivo; details: rat, single oral dose 10 mg/kg TPPU; for concentration at 8 h: 8h post dose; for concentration at 8 h / concentration at 12 h / concentration at 24 h / concentration at 48 h / concentration at 72 h: n = 3; for concentration at 12 h: 12h post dose; for concentration at 24 h: 24h post dose; for concentration at 48 h: 48h post dose; for concentration at 72 h: 72h post dose
[6] = male, Sprague Dawley, whole blood, oral gavage 10 mg/kg

Row | formation of metabolite in liver S9 fractions [2] | formation of metabolite in liver S9 fractions in the absence of a NADPH generation system [2] | IC50 (recombinant human sEH) | concentration at 8 h [3] [ng/mL] | concentration at 12 h [3] [ng/mL] | concentration at 24 h [3] [ng/mL] | concentration at 48 h [3] [ng/mL] | concentration at 72 h [3] [ng/mL] | half-life [4, 6] [h] | share of the total TPPU-related exposure in blood ([4]; rat blood) [%] | concentration at 8 h ([5]; male, Sprague Dawley, feces) [ng/mL] | concentration at 12 h ([5]; male, Sprague Dawley, feces) [ng/mL] | concentration at 24 h ([5]; male, Sprague Dawley, feces) [ng/mL] | concentration at 48 h ([5]; male, Sprague Dawley, feces) [ng/mL] | concentration at 72 h ([5]; male, Sprague Dawley, feces) [ng/mL] | Molecule | detection as TPPU metabolite [1] | share of TPPU metabolism, if formed [1] [%] | concentration in rat urine, if formed (below method detection limit) [1] [ng/mL] | other results
1 | found in all species tested | failed to be detected | 16 ± 2 nM | 2.7 | 3.2 | 7.6 | 3 | 61 ± 60 | 9.7 ± 0.8 | < 0.4 | 4.3 | 6.8 | 6.7 | 1.9 | 43 ± 31 | O=C(Nc1ccc(OC(F)(F)F)cc1)NC1CCN(C(=O)CCO)CC1 [Compound M2, 1-(1-(3-hydroxypropanoyl)piperidin-4-yl)-3-(4-(trifluoromethoxy)phenyl)urea] |  |  |  | 
2 | found in all species tested | could still be produced | 83.5 nM and 83 nM | 2.5 | 2.9 | 1 | 1.5 | 44 ± 21 | 14 ± 2.7 | < 0.4 | 3.6 | 8.3 | 1.1 | 3.4 | 1.7 | O=C(Nc1ccc(OC(F)(F)F)cc1)NC1CCNCC1 [Compound M3, 1-(piperidin-4-yl)-3-(4-(trifluoromethoxy)phenyl)urea] |  |  |  | fold lower potency than TPPU toward human sEH (recombinant human sEH; ratio of IC50 values, versus TPPU): 80 fold
3 | not detected |  | 158 ± 10 nM | 1 | 1.1 | 2.4 | 1.2 | 1.7 | 17 ± 4.7 | < 0.4 | 3 | 1.2 | 2.2 | 6.4 | 2.1 | O=C(O)CC(=O)N1CCC(NC(=O)Nc2ccc(OC(F)(F)F)cc2)CC1 [Compound M4, 3-oxo-3-(4-(3-(4-(trifluoromethoxy)phenyl)ureido)piperidin-1-yl)propanoic acid] |  |  |  | Cmax ([4]; male, Sprague Dawley, whole blood, rat blood, oral gavage 10 mg/kg, n = 4, read-out: Cmax (maximum blood concentration)): 53 ± 28 nM; Cmax ([5]; male, Sprague Dawley, feces): 22000 ng/mL; time of Cmax in feces [5]: 24 h

The remaining lines, values behind:

Row | Molecule | formation of metabolite in liver S9 fractions [2] | formation of metabolite in liver S9 fractions in the absence of a NADPH generation system [2] | IC50 (recombinant human sEH) | concentration at 8 h [3] [ng/mL] | concentration at 12 h [3] [ng/mL] | concentration at 24 h [3] [ng/mL] | concentration at 48 h [3] [ng/mL] | concentration at 72 h [3] [ng/mL] | half-life [4, 6] [h] | share of the total TPPU-related exposure in blood ([4]; rat blood) [%] | concentration at 8 h ([5]; male, Sprague Dawley, feces) [ng/mL] | concentration at 12 h ([5]; male, Sprague Dawley, feces) [ng/mL] | concentration at 24 h ([5]; male, Sprague Dawley, feces) [ng/mL] | concentration at 48 h ([5]; male, Sprague Dawley, feces) [ng/mL] | concentration at 72 h ([5]; male, Sprague Dawley, feces) [ng/mL] | detection as TPPU metabolite [1] | share of TPPU metabolism, if formed [1] [%] | concentration in rat urine, if formed (below method detection limit) [1] [ng/mL] | other results
4 | 4-(trifluoromethoxy)aniline |  |  |  |  |  |  |  |  |  |  |  |  |  |  |  | not detectable | < 0.01 | < 0.1 | 
5 | CC(=O)C(=O)N1CCC(NC(=O)Nc2ccc(OC(F)(F)F)cc2)CC1 [α-Keto amide, 1-(1-(2-oxopropanoyl)piperidin-4-yl)-3-(4-(trifluoromethoxy)phenyl)urea] |  |  |  |  |  |  |  |  |  |  |  |  |  |  |  | not detectable | < 0.01 | < 0.5 | 
